Laboratory results: PubChem BioAssay (NCI)
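A five-concentration, 48-hour dose response in 96-well plates underlies each endpoint, interpolated linearly between surrounding concentrations. TGI: concentration producing complete growth inhibition.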

Tests used:
Assay in all cases: NCI-60 cell line screen, 48 h
IGROV1 ovarian = test system: IGROV1 ovarian
M14 melanoma = test system: M14 melanoma
MDA-MB-435 = test system: MDA-MB-435
MOLT-4 leukemia = test system: MOLT-4 leukemia
NCI-H23 lung = test system: NCI-H23 lung
RPMI-8226 leukemia = test system: RPMI-8226 leukemia
SK-MEL-2 melanoma = test system: SK-MEL-2 melanoma
SW-620 colon = test system: SW-620 colon
T-47D breast = test system: T-47D breast
UACC-257 melanoma = test system: UACC-257 melanoma

Measured: TGI

COc1cccc(N=N/C(=N/NC(=O)c2ccc(C)cc2)c2ccc(N(CCC#N)CCC#N)cc2OC)c1
> 100 µM: IGROV1 ovarian | M14 melanoma | MDA-MB-435 | MOLT-4 leukemia | NCI-H23 lung | RPMI-8226 leukemia | SK-MEL-2 melanoma | SW-620 colon | T-47D breast | UACC-257 melanoma

Nc1ccc(-c2nc3ccccc3s2)cc1Cl
> 100 µM: IGROV1 ovarian | M14 melanoma | MDA-MB-435 | MOLT-4 leukemia | NCI-H23 lung | RPMI-8226 leukemia | SK-MEL-2 melanoma | SW-620 colon | T-47D breast | UACC-257 melanoma
